The values that follow come from patent publication US20210253575A1, “PYRROLIDINE AMINE COMPOUNDS FOR THE TREATMENT OF AUTOIMMUNE DISEASE” (Hoffmann-La Roche Inc., priority 2018, published 2021).

This assay concerns the target T1, human TLR9 (Homo sapiens, UniProt Q9NR96).
T1 sequence (Q9NR96 26-1032): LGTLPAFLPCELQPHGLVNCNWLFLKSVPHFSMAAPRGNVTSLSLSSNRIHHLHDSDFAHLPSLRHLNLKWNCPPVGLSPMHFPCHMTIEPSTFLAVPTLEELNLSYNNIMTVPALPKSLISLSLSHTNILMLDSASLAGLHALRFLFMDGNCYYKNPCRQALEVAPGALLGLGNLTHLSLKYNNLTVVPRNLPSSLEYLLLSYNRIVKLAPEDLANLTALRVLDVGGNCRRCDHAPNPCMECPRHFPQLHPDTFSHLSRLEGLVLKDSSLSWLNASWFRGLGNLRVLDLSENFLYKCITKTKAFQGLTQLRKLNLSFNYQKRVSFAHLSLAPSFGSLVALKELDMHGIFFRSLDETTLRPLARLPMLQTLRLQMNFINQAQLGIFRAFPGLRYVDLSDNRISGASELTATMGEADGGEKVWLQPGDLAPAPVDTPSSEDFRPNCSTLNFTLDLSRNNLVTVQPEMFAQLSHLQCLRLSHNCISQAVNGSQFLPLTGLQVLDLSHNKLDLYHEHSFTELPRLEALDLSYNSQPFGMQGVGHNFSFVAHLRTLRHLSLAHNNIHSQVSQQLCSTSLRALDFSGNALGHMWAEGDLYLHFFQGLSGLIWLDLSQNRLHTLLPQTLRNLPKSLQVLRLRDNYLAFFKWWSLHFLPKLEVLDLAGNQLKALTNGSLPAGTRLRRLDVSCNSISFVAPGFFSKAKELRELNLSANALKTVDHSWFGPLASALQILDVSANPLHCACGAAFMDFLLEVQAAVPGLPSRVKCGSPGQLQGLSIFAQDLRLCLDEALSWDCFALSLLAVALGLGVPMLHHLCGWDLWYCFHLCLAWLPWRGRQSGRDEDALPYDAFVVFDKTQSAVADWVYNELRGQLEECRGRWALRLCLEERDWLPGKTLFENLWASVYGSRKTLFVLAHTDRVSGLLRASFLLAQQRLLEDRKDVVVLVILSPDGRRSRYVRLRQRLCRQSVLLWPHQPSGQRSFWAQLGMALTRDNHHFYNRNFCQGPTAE
The experiment in a line: HEK293-Blue-hTLR-9 cells assay (SEAP reporter, ODN2006 stimulation). The assay is classed as cell-based. The note with it: HEK293-Blue-hTLR9 cells, ODN2006 ligand, 20 hrs incubation. A digest of the protocol:
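HEK293-Blue-hTLR9 cells with NF-κB/AP-1-driven SEAP reporter, stimulated with ODN2006 in presence of serially diluted compounds (1% DMSO) for 20 h at 37 °C. Supernatant SEAP measured with QUANTI-Blue after 2 h at 37 °C, absorbance 620–655 nm.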
With `N#Cc1ccc(N2CC(CN3CCNCC3)C3(CC3)C2)c2nccnc12` (centres unmarked) [Example 3, 8-[7-(piperazin-1-ylmethyl)-5-azaspiro[2.4]heptan-5-yl]quinoxaline-5-carbonitrile], the midpoint of inhibition, the IC50, lay at 1870 nM.

As for `N#Cc1ccc(N2CC(CN3CC4CCC(C3)C4N)C3(CC3)C2)c2nccnc12` (centres unmarked) [Example 4, 8-[7-[(8-Amino-3-azabicyclo[3.2.1]octan-3-yl)methyl]-5-azaspiro[2.4]heptan-5-yl]quinoxaline-5-carbonitrile], the IC50 (as a rule, the concentration needed to halve the response being measured) turned out to be 244 nM.

`CN(C)[C@@H]1CCN(C[C@H]2CN(c3ccc(C#N)c4nccnc34)C[C@@H]2C(F)(F)F)C1` [Example 83, 8-[(3S,4R)-3-[[(3R)-3-(dimethylamino)pyrrolidin-1-yl]methyl]-4-(trifluoromethyl)pyrrolidin-1-yl]quinoxaline-5-carbonitrile] displayed an IC50 of 2020 nM.

`CN1CCC2(CCN(C[C@H]3CN(c4ccc(C#N)c5nccnc45)C[C@@H]3C(F)(F)F)C2)C1` (stereo partly drawn) [Example 84, 8-[(3S,4R)-3-[(7-methyl-2,7-diazaspiro[4.4]nonan-2-yl)methyl]-4-(trifluoromethyl)pyrrolidin-1-yl]quinoxaline-5-carbonitrile] came in with an IC50 of 409 nM.

In the case of `CC1(CN)CCN(C[C@H]2CN(c3ccc(C#N)c4nccnc34)C[C@@H]2C(F)(F)F)C1` (stereo partly drawn) [Example 85, 8-[(3S,4R)-3-[[3-(aminomethyl)-3-methyl-pyrrolidin-1-yl]methyl]-4-(trifluoromethyl)pyrrolidin-1-yl]quinoxaline-5-carbonitrile], 314 nM corresponded to half-maximal inhibition (IC50).
